In publication PMC9603373 (Microbiology Spectrum, 2022):
Where two headings read alike, the source gives them in different places. Marks after values point to notes of the source that are not given here.

What was measured:
[1] = Single-dose pharmacokinetics in healthy rats; settings: plasma, single dose 90 mg/kg s.c.
Protocol: (§1) The experiments were performed in triplicate. […] Plasma was collected via centrifugation, and the samples were stored at −80°C until analysis.
(§2) All of the UHPLC-ESI-MS/MS analyses were performed using an Agilent 1290 UHPLC system coupled with an Agilent 6460 triple quadrupole mass spectrometer (Agilent Technologies, Santa Clara, CA, USA).

in vivo = settings: male, Wistar, rat, plasma, SD
Protocol: as §1, §2

[2] = tested on: daptomycin nonsusceptible Enterococcus faecium (NTUH688); test: Rat infective endocarditis model, DNSE; format: in vivo; settings: for blood_cfu / log_blood_cfu / log_veg_cfu / veg_cfu / veg_sterile: DNSE MIC 8, delay 48 h; for Bacterial load in blood / Rate of sterile vegetation / Bacterial load of vegetation: Wistar rat IE, DNSE MIC 8 mg/L, 48 h from inoculation to treatment; for Bacterial load in blood / Bacterial load of vegetation: mean (SD), SD; for Bacterial load in blood / Rate of sterile vegetation: n = 3; for Bacterial load of vegetation: sacrifice 24 h after last dose, n = 3, detection limit 2 log10 CFU/g; for veg_sterile: flag 1/0;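 for all read-outs here: Catheter-induced aortic valve endocarditis in male Wistar rats, treated 3 days, bacteria counted by plating vegetation and blood homogenates on brain heart infusion agar, control rats given phosphate-buffered saline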
Protocol: Approval for animal use was obtained from the National Taiwan University Institutional Animal Care and Use Committee before the commencement of the experiments. Endocarditis was induced in male Wistar rats weighing ~330 g by using previously developed methodologies with slight modifications ([46]). To expose the right carotid artery for the placement of an intravascular catheter, the animals were anesthetized with 1 μL/g of Zoletil 50 (1 mg/mL) plus Rompun (23.32 mg/mL). A sterile polyethylene catheter (Intramedic PE-10; Clay Adams, Parsippany, NJ, USA) was inserted through a small incision and advanced 4 cm into the left ventricle. The catheter was ligated and left in place for the duration of the experiment. 24 h after the catheter was placed across the aortic valve, the bacterial inoculum, which was presuspended in saline, and 1 mL of 10^8 CFU/mL of VRE were administered intravenously via the tail vein. We evaluated the actual inoculum based on the CFU count. The rats received antibiotic treatment at 24 h or 48 h after the bacterial inoculation.
The animals were treated for 3 days. A group of infected but phosphate-buffered saline-treated rats was used as a control. 24 h after the last treatment, the animals were sacrificed via anesthetic overdose. The aortic valve vegetation and 1 mL of blood were obtained aseptically from the sacrificed animals, weighed, and homogenized in 1 mL of phosphate-buffered saline. Serial dilutions of homogenized tissues were performed, and 100 μL of each dilution, including the undiluted sample, were plated on brain heart infusion agar to enumerate the bacteria. The animals were included in the final analysis only if they survived the entire therapy and if their catheters were found across the aortic valve in the left ventricle. The detection limit of the bacterial load of vegetation was 2 log10 CFU/g.

[3] = human healthy volunteers, cited from earlier work; for cmax: mean
Protocol: Therefore, 45 mg/kg s.c. and 90 mg/kg s.c might represent human doses of 8 mg/kg and 12 mg/kg, respectively ([34]). […] Since the efficacy was much more pronounced in the infrequently administered dosing regimens, Cmax/MIC is likely the most predictive ([35], [36]). The selected rat dose from which to simulate the human dose is slightly different from the others ([37][–][39 ...

[4] = 45 mg/kg sc, rat 1 of 3 (row order)
[5] = 45 mg/kg sc, rat 2 of 3 (row order)
[6] = 45 mg/kg sc, rat 3 of 3 (row order)
[7] = 90 mg/kg sc, rat 1 of 3 (row order)
[8] = 90 mg/kg sc, rat 2 of 3 (row order)
[9] = 90 mg/kg sc, rat 3 of 3 (row order)

## CCCCCCCCCC(=O)N[C@@H](Cc1c[nH]c2ccccc12)C(=O)N[C@H](CC(N)=O)C(=O)N[C@@H](CC(=O)O)C(=O)N[C@@H]1C(=O)NCC(=O)N[C@@H](CCCN)C(=O)N[C@@H](CC(=O)O)C(=O)N[C@H](C)C(=O)N[C@@H](CC(=O)O)C(=O)NCC(=O)N[C@H](CO)C(=O)N[C@@H]([C@H](C)CC(=O)O)C(=O)N[C@@H](CC(=O)c2ccccc2N)C(=O)O[C@@H]1C [daptomycin, Daptomycin]
[1]; time 0.5 h, rat id 3
  conc: 51
[1]; time 1 h, rat id 1
  conc: 58
[1]; time 1 h, rat id 2
  conc: 80
[1]; time 1 h, rat id 3
  conc: 57
[1]; time 2 h, rat id 1
  conc: 116
[1]; time 2 h, rat id 2
  conc: 143
[1]; time 2 h, rat id 3
  conc: 129
[1]; time 3 h, rat id 1
  conc: 125
[1]; time 3 h, rat id 2
  conc: 175
[1]; time 3 h, rat id 3
  conc: 200
[1]; time 4 h, rat id 1
  conc: 161
[1]; time 4 h, rat id 2
  conc: 148
[1]; time 4 h, rat id 3
  conc: 143
[1]; time 5 h, rat id 1
  conc: 158
[1]; time 5 h, rat id 2
  conc: 168
[1]; time 5 h, rat id 3
  conc: 179
[1]; time 8 h, rat id 1
  conc: 128
[1]; time 8 h, rat id 2
  conc: 151
[1]; time 8 h, rat id 3
  conc: 170
[1]; time 12 h, rat id 1
  conc: 78
[1]; time 12 h, rat id 2
  conc: 116
[1]; time 12 h, rat id 3
  conc: 84
[1]; time 24 h, rat id 1
  conc: 2
[1]; time 24 h, rat id 2
  conc: 6.44
[1]; time 24 h, rat id 3
  conc: 3.35
In vivo; iv, 12 mg/kg
  Tmax: 0.3 h
  cmax: 106000 ng/mL
  half-life: 4.6 h
In vivo; sc, 45 mg/kg
  Tmax: 3.3 h
  cmax: 123000 ng/mL
  half-life: 3 h
In vivo; sc, 90 mg/kg
  Tmax: 3.3 h
  cmax: 178000 ng/mL
  half-life: 2.9 h
[2]; [4]
  blood_cfu: 180
  log_blood_cfu: 2.26
  log_veg_cfu: 7
  veg_cfu: 5410000
  veg_sterile: 0
[2]; [5]
  blood_cfu: 0
  log_blood_cfu: 0
  log_veg_cfu: 7
  veg_cfu: 7620000
  veg_sterile: 0
[2]; [6]
  blood_cfu: 0
  log_blood_cfu: 0
  log_veg_cfu: 7
  veg_cfu: 13600000
  veg_sterile: 0
[2]; [7]
  blood_cfu: 0
  log_blood_cfu: 0
  log_veg_cfu: 5
  veg_cfu: 80400
  veg_sterile: 0
[2]; [8]
  blood_cfu: 0
  log_blood_cfu: 0
  log_veg_cfu: 5
  veg_cfu: 110000
  veg_sterile: 0
[2]; [9]
  blood_cfu: 0
  log_blood_cfu: 0
  log_veg_cfu: 5.59
  veg_cfu: 390000
  veg_sterile: 0
[2]; 45 mg/kg/day s.c. 3 days
  Bacterial load in blood: 0.75 (1.30) log10 CFU/mL
  Rate of sterile vegetation: 0
[2]; 45 mg/kg/day s.c. 3 days, 45 mg/kg/day
  Bacterial load of vegetation: 6.92 (0.20)^f log10 CFU/g
[2]; 90 mg/kg/day s.c. 3 days
  Bacterial load in blood: 0 (0) log10 CFU/mL
  Rate of sterile vegetation: 0
[2]; 90 mg/kg/day s.c. 3 days, 90 mg/kg/day
  Bacterial load of vegetation: 5.18 (0.36)^g^,^h log10 CFU/g
[3]; 8 mg/kg i.v.
  AUC0–24: 858.2 (24.9) mg × h/L
[3]; 12 mg/kg i.v.
  AUC0–24: 1,277.4 (19.8) mg × h/L
[3]; daily dose 8 mg/kg i.v.
  cmax: 123.3 (13.0) mg/L
[3]; daily dose 12 mg/kg i.v.
  cmax: 183.7 (13.6) mg/L
